Numbers after ± are expanded uncertainties.
Experiment: excess molar enthalpy (molar enthalpy of mixing); xn = mol fraction of the nth substance listed
Conditions: 1000 kPa, Liquid, Flow calorimetry

CC(C)(C)O [2-methylpropan-2-ol] + COC(=O)OC
excess molar enthalpy (298.15 K, x2 = 0.05): 0.128 ± 0.00454 kcal/mol
excess molar enthalpy (298.15 K, x2 = 0.1): 0.237 ± 0.00454 kcal/mol
excess molar enthalpy (298.15 K, x2 = 0.15): 0.329 ± 0.0043 kcal/mol
excess molar enthalpy (298.15 K, x2 = 0.2): 0.404 ± 0.0043 kcal/mol
excess molar enthalpy (298.15 K, x2 = 0.25): 0.468 ± 0.0043 kcal/mol
excess molar enthalpy (298.15 K, x2 = 0.3): 0.5164 ± 0.00454 kcal/mol
excess molar enthalpy (298.15 K, x2 = 0.35): 0.554 ± 0.00478 kcal/mol
excess molar enthalpy (298.15 K, x2 = 0.4): 0.5848 ± 0.00478 kcal/mol
excess molar enthalpy (298.15 K, x2 = 0.45): 0.6031 ± 0.00478 kcal/mol
excess molar enthalpy (298.15 K, x2 = 0.5): 0.6101 ± 0.00502 kcal/mol
excess molar enthalpy (298.15 K, x2 = 0.55): 0.605 ± 0.00502 kcal/mol
excess molar enthalpy (298.15 K, x2 = 0.6): 0.5876 ± 0.00478 kcal/mol
excess molar enthalpy (298.15 K, x2 = 0.65): 0.5647 ± 0.00478 kcal/mol
excess molar enthalpy (298.15 K, x2 = 0.7): 0.5272 ± 0.00454 kcal/mol
excess molar enthalpy (298.15 K, x2 = 0.75): 0.4738 ± 0.00454 kcal/mol
excess molar enthalpy (298.15 K, x2 = 0.8): 0.412 ± 0.00454 kcal/mol
excess molar enthalpy (298.15 K, x2 = 0.9): 0.252 ± 0.0043 kcal/mol
excess molar enthalpy (298.15 K, x2 = 0.95): 0.134 ± 0.00478 kcal/mol
excess molar enthalpy (328.15 K, x2 = 0.05): 0.124 ± 0.0043 kcal/mol
excess molar enthalpy (328.15 K, x2 = 0.1): 0.229 ± 0.0043 kcal/mol
excess molar enthalpy (328.15 K, x2 = 0.15): 0.319 ± 0.0043 kcal/mol
excess molar enthalpy (328.15 K, x2 = 0.2): 0.399 ± 0.0043 kcal/mol
excess molar enthalpy (328.15 K, x2 = 0.25): 0.462 ± 0.0043 kcal/mol
excess molar enthalpy (328.15 K, x2 = 0.3): 0.5154 ± 0.00454 kcal/mol
excess molar enthalpy (328.15 K, x2 = 0.35): 0.5556 ± 0.00478 kcal/mol
excess molar enthalpy (328.15 K, x2 = 0.4): 0.5831 ± 0.00478 kcal/mol
excess molar enthalpy (328.15 K, x2 = 0.45): 0.602 ± 0.00478 kcal/mol
excess molar enthalpy (328.15 K, x2 = 0.5): 0.6083 ± 0.00502 kcal/mol
excess molar enthalpy (328.15 K, x2 = 0.55): 0.6034 ± 0.00478 kcal/mol
excess molar enthalpy (328.15 K, x2 = 0.6): 0.5891 ± 0.00478 kcal/mol
excess molar enthalpy (328.15 K, x2 = 0.65): 0.5623 ± 0.00478 kcal/mol
excess molar enthalpy (328.15 K, x2 = 0.7): 0.5257 ± 0.00454 kcal/mol
excess molar enthalpy (328.15 K, x2 = 0.75): 0.4695 ± 0.00454 kcal/mol
excess molar enthalpy (328.15 K, x2 = 0.8): 0.411 ± 0.00454 kcal/mol
excess molar enthalpy (328.15 K, x2 = 0.9): 0.245 ± 0.0043 kcal/mol
excess molar enthalpy (328.15 K, x2 = 0.95): 0.128 ± 0.00478 kcal/mol
